One assay addresses T1, human BAP-37 (hBAP-37) (Homo sapiens, UniProt Q99623).
T1 construct: expressed in transfected cells; prey cDNA from a library of the A5T4 reporter line (BJAB human B-cells)
Briefly: β-galactosidase yeast two hybrid (YTH) interaction assay. Format: binding. The settings on record: peptide as bait. Here is the method: Potential binding partners for peptide CL08wt (SEQ ID NO: 1) were identified in a β-galactosidase yeast two-hybrid (YTH) assay using peptide CL08wt (SEQ ID NO: 1) as bait and a cDNA library constructed from the A5T4 reporter cell line as prey. Binding was assessed by β-galactosidase quantification using BetaFluor (Novagen) as a substrate. A negative interaction control (no cDNA fused downstream of the GAL4 activation domain sequence) was also run. A general outline of the YTH assay is illustrated in FIG. 6A. Following clustering, filtering to remove non-specific bait hits (e.g., GFP and BFP), singletons and clusters recognized by 10 or more cDNA baits (based upon historical YTH assays), 7 prey clones were identified as hits.
Potential targets identified in the YTH assay were reconfirmed as generally outlined in FIG. 7. The cDNA clones identified as hits in the YTH assay were purified and rescreened for interaction with the CL08wt peptide in YTH assay. The hit clones were also screened in a control assay for interaction with the BFP using a vector (pGBKT7) that contained only the BFP and not the CL08wt peptide. At this stage, 7 putative target clones remained.
The interaction of CL08wt (SEQ ID NO: 1) peptide and its mutants with the clones identified as potential targets for the peptide CL08wt (SEQ ID NO: 1) was then quantified in a β-galactosidase YTH assay. The YTH assay was performed in the manner described above. A general outline of this YTH assay is illustrated in FIG. 6B. For each clone tested, an interaction profile was developed by comparing the β-galactosidase activity of each mutant to that of the wild type peptide, as described above.
The interaction of these N, IOF and ROF mutants with different polypeptides encoded by the putative target clones were quantified using the YTH assay described above. […]

Assay [1] relates to IL-4 induced germline ε transcription (ε promoter reporter) in naïve A5T4 cells. Briefly: Re-infection (DNA transfer) assay in naïve A5T4 reporter cells; also used for the functional profile of the mutants. It counts as cell-based, human. The settings on record: for functional category of the mutant compared to CL08wt: % change in reporter ratio calculated after subtracting 1.0 from the individual ratios; for Reporter Ratio: Table 2, CL08wt and mutants screened in the A5T4 reporter line. Here is the method:
The ability of peptide CL08wt (SEQ ID NO: 1) to inhibit germline ε transcription was confirmed in naïve cells. Briefly, Phoenix cells were transfected with a retroviral vector encoding a BFP-CL08wt peptide fusion as described in WO 99/58663 and WO 97/27213. Naïve A5T4 cells were infected with the resultant virions and grown for 3 days. The infected cells were stimulated with IL-4 (60 U/mL) and, after 3 days, the cells were assessed by FACS for BFP and GFP. […] The BFP fluorescence data corresponding to the BFP^+ and BFP^− populations are provided in Panel A. The GFP fluorescence data corresponding to the BFP^+ and BFP^− populations are presented in Panel B. The reporter ratio for this purpose is determined as the geometric mean of the GFP fluorescence of the BFP^− population divided by the geometric mean of the GFP fluorescence of the BFP^+ population. The reporter ratio for the CL08 in this re-infection assay was 1.39.
A collection of CL08 mutants was generated by replacing single or double amino acid residues in the sequence of CL08wt (SEQ ID NO: 1) with a different amino acid, typically an alanine, as described in copending application Ser. No. 10/095,659, entitled Methods of Identifying Protein Targets, filed Mar. 8, 2002. The functional profiles for the mutants derived from CL08wt (SEQ ID NO: 1) was obtained by constructing and screening for activity in the A5T4 reporter cell line in the manner described above. The activity of each mutant at the germline ε promoter is reflected in the reporter ratio, as described above. The reporter ratios were the functional values that were used to develop the functional profiles.
TABLE 2 depicts the amino acid sequences (the mutations are underlined) of the mutants tested and the measured reporter ratios when screening in the A5T4 reporter line.
Comparison of the interaction and functional profiles was performed by categorizing the mutants of CL08 based on the functional and interaction assays. Based on the reporter ratio, described in panel C of FIG. 5, each mutant was categorized into one of four functional categories: (1) reduction of function (ROF); (2) loss of function (LOF); (3) increase of function (IOF) or (4) functionally neutral (N), as compared to the activity of the wild type peptide, here CL08wt. As mentioned previously, cells expressing a peptide that inhibits germline ε transcription have reporter ratios of ≧1.1. Cells expressing a loss of function mutant have a reporter ratio of […]. […] Functionally neutral mutants have reporter ratios that fall within ±50% of that of the CL08wt (SEQ ID NO: 1) peptide. The % increase or decrease in reporter ratio is calculated after subtracting 1.0 from the individual ratios. […]

Assay [2] concerns ST486 endogenous α promoter. In words: TAQMAN assay of germline α transcription (selectivity). Format: cell-based. As to conditions: ST486 cells stimulated with TGF-β 40 ng/ml; average of 3 values; p=0.7371. Here is the method:
The assay was similar to that described in the immediately preceding section, except that ST486 cells (ATCC #CRL-1647) engineered to express the tetracycline-regulated transactivator were infected and the infected cells were stimulated with TGF-β (40 ng/ml; Peprotech). The primers and probe, which are specific for the transcription product driven by the ST486 endogenous α promoter, were as follows (the probe was labeled at the 5′-end with Fam and at the 3′-end with Tamra): […]

For assay [3], the system named is IL-4 induced germline ε transcription (ε promoter reporter) in A5T4 reporter cells. Briefly: A5T4 reporter line screening assay of library clones (HBEGF2a/GFP reporter, FACS). It counts as cell-based, human. The settings on record: geometric mean GFP fluorescence, +IL-4/+Dox to +IL-4/−Dox populations; IL-4 60 U/mL, Dox 10 ng/ml; ≧1.1 = inhibition. The source says:
Peptide CL08wt (SEQ ID NO: 1) was identified by screening a retroviral library of random peptide 20-mers for the ability to inhibit IL-4 induced germline ε transcription using the HBEGF2a/[…] dual reporter phenotypic screening system described in WO 01/31232. To construct the random library, A5T4 reporter cells (described in more detail below) were infected with an infectious retroviral library of random peptide 20-mers (prepared as described in WO 97/27213; see also WO 01/34806 at page 39, line 36 through page 40, line 19). The retroviral vector used includes a gene encoding blue fluorescent protein (BFP) fused upstream of the region encoding the random peptide via a linker region encoding an α-helical peptide linker (expression fusion product is referred to as “BFP-peptide”). Expression of the BFP-peptide product is controlled by a promoter sensitive to the tetracycline-regulated transactivator such that expression of the BFP-peptide is regulated by tetracycline (Tet) or doxycycline (Dox). See U.S. patent application Ser. No. 10/096,339 entitled “Methods and Compositions for Screening for Alter Cellular Phenotypes”, filed on Mar. 8, 2002. […]

T1 sequence (Q99623 whole entry): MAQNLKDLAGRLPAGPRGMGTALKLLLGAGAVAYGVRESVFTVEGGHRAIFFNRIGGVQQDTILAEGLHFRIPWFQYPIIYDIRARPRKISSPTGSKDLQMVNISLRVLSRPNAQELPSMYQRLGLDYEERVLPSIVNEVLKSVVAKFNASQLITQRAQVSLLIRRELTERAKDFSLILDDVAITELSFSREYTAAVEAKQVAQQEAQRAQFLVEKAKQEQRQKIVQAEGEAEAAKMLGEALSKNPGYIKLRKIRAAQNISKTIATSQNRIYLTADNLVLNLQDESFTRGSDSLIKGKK

With “TGAAVELQINRSIMHYISSP (peptide encoded by synthetic oligomer) [CL08VH, double alanine mutant of CL08wt]”, the “binding to human BAP-37 in yeast two hybrid interaction assay” value (shortened to “binding”) with human BAP-37 (hBAP-37) is recorded as “bind”. In addition, the “functional category of the mutant compared to CL08wt” value in assay [1] is “ROF (a reduction of function of mutant (ROF) shows a >50% decrease in reporter ratio)”.

In the case of “TGVHVAAQINRSIMHYISSP (peptide encoded by synthetic oligomer) [CL08EL, double alanine mutant of CL08wt]”, the “Reporter Ratio” value in assay [1] was found to be 1.43.

In the case of “TGVHVELQINRSIMHYISSP (peptide encoded by synthetic oligomer) [CL08wt, 20-mer peptide from a random retroviral library, expressed as BFP-peptide fusion]”, the “endogenous α inhibition ratio” value in assay [2] is on record as 1.06. The Reporter Ratio in assay [3] was 1.37. The “binding” value with human BAP-37 (hBAP-37) is “bind”.

For “TGVHVELQINRSIMAAISSP (peptide encoded by synthetic oligomer) [CL08HY, double alanine mutant of CL08wt]”, in assay [1], the “Reporter Ratio” value is 1.54.

Consider “TGVHVELQIAASIMHYISSP (peptide encoded by synthetic oligomer) [CL08NR, double alanine mutant of CL08wt]”, for which the “binding” value in the assay with human BAP-37 (hBAP-37) is “bind”. The “functional category of the mutant compared to CL08wt” value in assay [1] is “IOF (An increase of function mutant (IOF) shows a >50% increase in reporter ratio)”.
